Source: patent US20240358885A1, “COMPOSITIONS FOR EMBOLIZATION” (IBERHOSPITEX, S.A., priority 2021, published 2024)

Legend:
[1] = Precipitation behavior on slow injection into PBS; format: physicochemical; parameters: key: cohesive (2); cohesive with loss of some material (1); uncontrollable injection or not cohesive (0); details: score; 100 ul injected slowly into PBS, 27 G needle
Protocol: (§1) The resulting solutions were assayed to assess the precipitation behavior and the radiopacity loss.
Embolization formulations were slowly injected into phosphate buffered saline (PBS) using a syringe and a fine needle (27 G). Precipitates of embolizing material were obtained after slow injection (1 minute approximately) of 100 ul of embolization formulations. The precipitation behavior was observed and scored as cohesive (2), cohesive with loss of some material (1) and uncontrollable injection or not cohesive (0).

[2] = Radiopacity loss and homogeneity of precipitates incubated in PBS at 37° C.; format: physicochemical; parameters: key to Homogeneous radiopacity (0-1): non-homegeneous (score=0); homogeneous (score=1); details: for Radiopacity loss (0-3) / Homogeneous radiopacity (0-1): score; for Radiopacity loss (0-3): 30 days in PBS at 37° C. vs time=0, 150 mg equivalent iodine/ml with 6% ethylene vinyl alcohol copolymer in DMSO; for Homogeneous radiopacity (0-1): C-arm X-ray; for radiopacity loss in PBS over time (in words): PBS at 37° C., 30 min and 30 days
Protocol: as §1
Radiopacity loss of precipitates was determined by comparing the radiopacity of freshly prepared samples (time=0) and samples incubated for 30 days in phosphate buffered saline (PBS) at 37° C. PBS was changed daily when possible. Radiopacity was determined using a C-arm X-ray equipment (OEC Fluorostar 7900COMPACT2, General Electric). Radiopacity loss was scored as radiostable (score =0) when the radiopacity loss was below 5%, slightly radiolabile when the radiopacity loss was comprised between 5 to 25% radiopacity loss (score=1), moderately radiolabile when the radiopacity loss was comprised between 26 to 69% radiopacity loss (score=2) and highly radiolabile when the radiopacity loss was comprised between 70to 100% radiopacity loss (score=3). Homogeneity of the radiopacity was also scored as non-homegeneous (score=0) or homogeneous (score=1).
The procedure was as defined above. It can be observed that formulations with high logP values, i.e. above 7.0, are radiostable, while formulations with low logP values, i.e. below 2.0 (logP (LFE13)=−1.6 and logP (LFE23) at pH 7.4=−0.5) lose their radiopacity within minutes.

[3] = test system: renal artery; assay: In vivo embolization of porcine kidney; details: 0.6 ml injected into the renal artery, 35 kg swine
Protocol: In this example, a 35 kg swine was prepared for blood vessel embolization using the embolic composition LFE09 prepared according to Example 2. Embolization of the left kidney proceeded by placement of a microcatheter into the kidney. The catheter was advanced into the renal artery, flushed with contrast agent to identify the location and then flushed with DMSO, followed by 0.6 ml of the LFE09 composition described above, followed yet by more DMSO within the catheter. LFE09 composition was quickly injected into the renal artery. […] After 14 days, the right kidney was embolized with 0.6 ml of the same LFE09 formulation and the animal was euthanized.

[4] = Radiopacity loss and homogeneity of precipitates incubated in PBS at 37° C.; format: physicochemical; details: 30 min of incubation in PBS at 37° C.
[5] = 30 days of incubation in PBS at 37° C.

Row | Structure (SMILES) | Precipitation (0-2) [1] | Homogeneous radiopacity (0-1) [2] | % of radiopacity compared to time zero [2, 5] | radiopacity loss in PBS over time (in words) [2] | % of radiopacity compared to time zero ([2]; t zero) | % of radiopacity compared to time zero [4] | Radiopacity loss (0-3) [2] | embolization of the kidney (in words) [3]
1 | CCCOC(=O)Cn1cc(I)c(=O)c(I)c1 [LFE03] | 2 | 1 | 14.5% | significant radiopacity loss | 100.0% |  | 3 (highly radiolabile when the radiopacity loss was comprised between 70to 100% radiopacity loss (score=3)) | 
2 | COCCOCCOCCOCCOCCOCCOCCOCCOCCOCCOCCOCCOc1c(I)cc(I)cc1I [LFE08] | 0 | 1 | 29.3% | significant radiopacity loss | 100.0% |  | 2 (moderately radiolabile when the radiopacity loss was comprised between 26 to 69% radiopacity loss (score=2)) | 
3 | CN(C(=O)CO)c1c(I)c(C(=O)NCC(O)CO)c(I)c(C(=O)NCC(O)CO)c1I (centres unmarked) [LFE13, iomeprol, reference compound] | 0 | 1 | 11.9% |  | 100.0% | 29.0% | 3 (highly radiolabile when the radiopacity loss was comprised between 70to 100% radiopacity loss (score=3)) | 
4 | CC(=O)OCC(=O)N(C)c1c(I)c(C(=O)NCC(COC(C)=O)OC(C)=O)c(I)c(C(=O)NCC(COC(C)=O)OC(C)=O)c1I (centres unmarked) [LFE14] | 2 | 1 |  |  |  |  | 3 (highly radiolabile when the radiopacity loss was comprised between 70to 100% radiopacity loss (score=3)) | 
5 | O=C(OCCOCCOCCOCCOCCO)c1cc(I)cc(I)c1I [LFE17] | 2 | 1 |  |  |  |  | 2 (moderately radiolabile when the radiopacity loss was comprised between 26 to 69% radiopacity loss (score=2)) | 
6 | COCCOCCOCCOCCOCCOCc1cc(I)cc(I)c1I [LFE19] | 2 | 1 |  |  |  |  | 1 (slightly radiolabile when the radiopacity loss was comprised between 5 to 25% radiopacity loss (score=1)) | 
7 | CCCOC(=O)c1c(I)c(NC(C)=O)c(I)c(NC(C)=O)c1I [LFE22] | 2 | 1 |  |  |  |  | 1 (slightly radiolabile when the radiopacity loss was comprised between 5 to 25% radiopacity loss (score=1)) | 
8 | CC(=O)Nc1c(I)c(NC(C)=O)c(I)c(C(=O)O)c1I [LFE23, Diatrizoic acid, reference compound] | 1 | 1 | 19.0% |  | 100.0% | 35.6% | 3 (highly radiolabile when the radiopacity loss was comprised between 70to 100% radiopacity loss (score=3)) | 

Further lines, with some results ahead:

Row | Precipitation (0-2) [1] | Homogeneous radiopacity (0-1) [2] | % of radiopacity compared to time zero [2, 5] | radiopacity loss in PBS over time (in words) [2] | % of radiopacity compared to time zero ([2]; t zero) | % of radiopacity compared to time zero [4] | Structure (SMILES) | Radiopacity loss (0-3) [2] | embolization of the kidney (in words) [3]
9 | 2 | 0 |  |  |  |  | CCCCCCOc1c(I)cc(I)cc1I [LFE01] | 1 (slightly radiolabile when the radiopacity loss was comprised between 5 to 25% radiopacity loss (score=1)) | 
10 | 1 | 0 |  |  |  |  | CCOC(=O)COc1c(I)cc(I)cc1I [LFE02, ethyl 2,4,6-triiodophenoxyacetate] | 2 (moderately radiolabile when the radiopacity loss was comprised between 26 to 69% radiopacity loss (score=2)) | 
11 | 2 | 1 |  |  |  |  | CCCCCCOC(=O)Cn1cc(I)c(=O)c(I)c1 [LFE04] | 2 (moderately radiolabile when the radiopacity loss was comprised between 26 to 69% radiopacity loss (score=2)) | 
12 | 2 | 0 |  |  |  |  | COCCOCCOCCOc1c(I)cc(I)cc1I [LFE05] | 3 (highly radiolabile when the radiopacity loss was comprised between 70to 100% radiopacity loss (score=3)) | 
13 | 2 | 1 |  |  |  |  | OCCOCCOCCOc1c(I)cc(I)cc1I [LFE06] | 2 (moderately radiolabile when the radiopacity loss was comprised between 26 to 69% radiopacity loss (score=2)) | 
14 | 2 | 1 |  |  |  |  | COCCOCCOCCOCCOCCOc1c(I)cc(I)cc1I [LFE07] | 2 (moderately radiolabile when the radiopacity loss was comprised between 26 to 69% radiopacity loss (score=2)) | 
15 | 2 | 1 | 64.7% | significant radiopacity loss | 100.0% |  | COCCOCCOCCOC(=O)COc1c(I)cc(I)cc1I [LFE09] | 3 (highly radiolabile when the radiopacity loss was comprised between 70to 100% radiopacity loss (score=3)) | the upper pole of the kidney was blocked
16 | 2 | 1 |  |  |  |  | O=C(COc1c(I)cc(I)cc1I)OCCOCCOCCO [LFE10] | 3 (highly radiolabile when the radiopacity loss was comprised between 70to 100% radiopacity loss (score=3)) | 
17 | 2 | 0 |  |  |  |  | CC(=O)OCCOCCOCCOc1c(I)cc(I)cc1I [LFE12] | 2 (moderately radiolabile when the radiopacity loss was comprised between 26 to 69% radiopacity loss (score=2)) | 
18 | 2 | 0 |  |  |  |  | COCCOCCOCCOCc1cc(I)cc(I)c1I [LFE20] | 1 (slightly radiolabile when the radiopacity loss was comprised between 5 to 25% radiopacity loss (score=1)) | 
19 | 2 | 1 | 91.4% | significant radiopacity loss | 100.0% |  | CCCCCCOC(=O)c1c(I)c(NC(C)=O)c(I)c(NC(C)=O)c1I [LFE21] | 1 (slightly radiolabile when the radiopacity loss was comprised between 5 to 25% radiopacity loss (score=1)) | 
20 | 1 | 0 | 101.9% | complete radiostability | 100.0% | 101.3% | CCCCC(CC)COc1c(I)cc(I)cc1I (centres unmarked) [LFE24] | 0 (radiostable (score =0) when the radiopacity loss was below 5%) | 
